Patent US12070462B2, “SETBP1 inhibitors for the treatment of myeloid neoplasms and solid tumors” (The Henry M. Jackson Foundation for the Advancement of …, priority 2018, dated 2024)

Assays:
[1] = test system: Setbp1-immortalized mouse myeloid progenitors; test: Colony formation on methylcellulose by Setbp1-immortalized myeloid progenitors; assay type: cell-based; conditions: for colony formation: Setbp1-immortalized cells, 1 nM, 5 nM, 10 nM, and 100 nM
Procedure: (§1) In Vitro and In Vivo Testing of Compound (1AA). The activity of Compound 1AA against myeloid neoplasms was first determined in vitro by assessing its inhibitory effect on the colony formation by Setbp1/Setbp1(D/N)-immortalized mouse myeloid progenitors on IMDM methylcellulose medium with 20% horse serum plus mouse Scf (50 ng/ml) and Il-3 (10 ng/ml). The in vivo activity of Compound 1AA was evaluated by assessing its capability to reduce spleen size and to extend the survival of mice transplanted with Setbp1(D/N)-induced leukemia cells. For the generation of leukemic mice, 5×10^5 spleen cells from a primary recipient mouse with Setbp1(D/N)-induced leukemia were injected into the tail vein of each sublethally irradiated (550 rads from a ^137Cs source) B6-Ly5.2 female mouse. Starting from day 10 after transplantation, the recipient mice were treated with Compound (1AA) (33 mg/kg, dissolved in saline) or saline through five intra-peritoneal injections. The activity of Compound 1AA against solid tumors is determined by assessing its growth inhibitory effects on different human solid tumor cell lines in culture. Specifically, cellular ATP levels of liquid cultures of these cell lines are measured at 72 hours after treatment with serially diluted concentrations of Compound 1AA and compared to untreated cells.
(§2) Cell Culture Studies of Immortalized Myeloid Progenitors. […]

[2] = test system: Setbp1(D/N)-immortalized mouse myeloid progenitors; test: Colony formation on methylcellulose by Setbp1(D/N)-immortalized myeloid progenitors; assay type: cell-based; conditions: for colony formation: Setbp1 (D/N)-immortalized cells, 1 nM
Procedure: as §1, §2

[3] = test system: Setbp1-immortalized myeloid progenitor cells; test: Apoptosis (Annexin V) and differentiation/cytotoxicity (cytospin) in Setbp1-immortalized cells; assay type: cell-based, mouse; conditions: for differentiation/cytotoxicity: 100 nM
Procedure: (§3) Cell Culture Studies of Immortalized Myeloid Progenitors. Mouse myeloid progenitors immortalized by 3×FLAG-tagged Setbp1 and Setbp1(D/N) were generated and maintained as previously described using pMYs-3×FLAG-Setbp1-IRES-GFP and pMYs-3×FLAG-Setbp1(D/N)-IRES-GFP viruses respectively (Oakley et al., Blood 119(25): 6099-6108 (2012). Lentiviral transduction of these immortalized cells was carried out by spinoculation in which a mixture of lentivirus and target cells was spun at 2000×g for 90 minutes at 37° C. Transduced cells were selected by treatment with puromycin (2 μg/ml) for 24 hours at 24 hours after lentiviral transduction. Colony formation assays for transduced cells were performed at 48 hours after infection using 1×10^4 puromycin-resistant cells on IMDM methylcellulose medium supplemented with 20% horse serum, mouse Scf (100 ng/ml) and II-3 (10 ng/ml), and puromycin (2 μg/ml) with colony numbers counted after 7 days. For studying effects of KPT-185 (Selleck Chemicals, Houston, TX) in liquid culture, immortalized cells were treated at 2.5×10^5 cells/ml concentration. Detection of apoptosis was performed using PE Annexin V Apoptosis Detection Kit (BD Biosciences). KPT-185 was directly added to methylcellulose medium for assessing its effects on colony formation by immortalized cells.

[4] = test system: Setbp1(D/N)-immortalized myeloid progenitors; test: Apoptosis (Annexin V) and differentiation/cytotoxicity (cytospin) in Setbp1(D/N)-immortalized cells; assay type: cell-based, mouse; conditions: for differentiation/cytotoxicity: Setbp1 (D/N)-immortalized cells, 100 nM
Procedure: as §3

[5] = test system: Hoxa9, Hoxa10 and Myb mRNA levels; test: Real-time RT-PCR of Setbp1 target genes in Setbp1-immortalized cells; assay type: cell-based, mouse; conditions: for Setbp1 target transcription levels of Hoxa9, Hoxa10 and Myb: 12 hours post-treatment, 1 nM
Procedure: as §3
(§4) Real-Time RT-PCR. For real-time RT-PCR, total RNA was extracted from cells using Nucleospin RNA (Clontech, Duren, Germany). Oligo-dT-primed cDNA samples were prepared using Superscript III (Invitrogen), and real-time PCR analysis was performed in triplicates using SYBR green detection reagents (Invitrogen) on a QuantStudio real time PCR system (Applied Biosystems, Foster City, CA). Relative changes in expression were calculated according to the ΔΔCt method. The cycling conditions were 50° C. for 2 minutes followed by 95° C. for 2 minutes, and then 40 cycles of 95° C. for 15 seconds and 60° C. for 1 minute. […]

[6] = test system: Hoxa9, Hoxa10 and Myb mRNA levels; test: Real-time RT-PCR of Setbp1(D/N) target genes in Setbp1(D/N)-immortalized cells; assay type: cell-based, mouse; conditions: for Setbp1 (D/N) target transcription levels of Hoxa9, Hoxa10 and Myb: Setbp1 (D/N)-immortalized cells, 12 hours post-treatment, 1 nM
Procedure: as §3, §4

[7] = biological target: T1, interaction between Setbp1(D/N) and XPO1 (Mus musculus, UniProt Q9Z180, D859N); test: Co-immunoprecipitation / Western blotting of nuclear extracts of transfected HEK293T cells; assay type: cell-based; conditions: 1 μM, 10 μM and 25 μM, 12 hours, M2 immunoprecipitates
T1 construct: expressed in transfected cells; host or cells: HEK293T
T1 sequence (Q9Z180 whole entry D859N): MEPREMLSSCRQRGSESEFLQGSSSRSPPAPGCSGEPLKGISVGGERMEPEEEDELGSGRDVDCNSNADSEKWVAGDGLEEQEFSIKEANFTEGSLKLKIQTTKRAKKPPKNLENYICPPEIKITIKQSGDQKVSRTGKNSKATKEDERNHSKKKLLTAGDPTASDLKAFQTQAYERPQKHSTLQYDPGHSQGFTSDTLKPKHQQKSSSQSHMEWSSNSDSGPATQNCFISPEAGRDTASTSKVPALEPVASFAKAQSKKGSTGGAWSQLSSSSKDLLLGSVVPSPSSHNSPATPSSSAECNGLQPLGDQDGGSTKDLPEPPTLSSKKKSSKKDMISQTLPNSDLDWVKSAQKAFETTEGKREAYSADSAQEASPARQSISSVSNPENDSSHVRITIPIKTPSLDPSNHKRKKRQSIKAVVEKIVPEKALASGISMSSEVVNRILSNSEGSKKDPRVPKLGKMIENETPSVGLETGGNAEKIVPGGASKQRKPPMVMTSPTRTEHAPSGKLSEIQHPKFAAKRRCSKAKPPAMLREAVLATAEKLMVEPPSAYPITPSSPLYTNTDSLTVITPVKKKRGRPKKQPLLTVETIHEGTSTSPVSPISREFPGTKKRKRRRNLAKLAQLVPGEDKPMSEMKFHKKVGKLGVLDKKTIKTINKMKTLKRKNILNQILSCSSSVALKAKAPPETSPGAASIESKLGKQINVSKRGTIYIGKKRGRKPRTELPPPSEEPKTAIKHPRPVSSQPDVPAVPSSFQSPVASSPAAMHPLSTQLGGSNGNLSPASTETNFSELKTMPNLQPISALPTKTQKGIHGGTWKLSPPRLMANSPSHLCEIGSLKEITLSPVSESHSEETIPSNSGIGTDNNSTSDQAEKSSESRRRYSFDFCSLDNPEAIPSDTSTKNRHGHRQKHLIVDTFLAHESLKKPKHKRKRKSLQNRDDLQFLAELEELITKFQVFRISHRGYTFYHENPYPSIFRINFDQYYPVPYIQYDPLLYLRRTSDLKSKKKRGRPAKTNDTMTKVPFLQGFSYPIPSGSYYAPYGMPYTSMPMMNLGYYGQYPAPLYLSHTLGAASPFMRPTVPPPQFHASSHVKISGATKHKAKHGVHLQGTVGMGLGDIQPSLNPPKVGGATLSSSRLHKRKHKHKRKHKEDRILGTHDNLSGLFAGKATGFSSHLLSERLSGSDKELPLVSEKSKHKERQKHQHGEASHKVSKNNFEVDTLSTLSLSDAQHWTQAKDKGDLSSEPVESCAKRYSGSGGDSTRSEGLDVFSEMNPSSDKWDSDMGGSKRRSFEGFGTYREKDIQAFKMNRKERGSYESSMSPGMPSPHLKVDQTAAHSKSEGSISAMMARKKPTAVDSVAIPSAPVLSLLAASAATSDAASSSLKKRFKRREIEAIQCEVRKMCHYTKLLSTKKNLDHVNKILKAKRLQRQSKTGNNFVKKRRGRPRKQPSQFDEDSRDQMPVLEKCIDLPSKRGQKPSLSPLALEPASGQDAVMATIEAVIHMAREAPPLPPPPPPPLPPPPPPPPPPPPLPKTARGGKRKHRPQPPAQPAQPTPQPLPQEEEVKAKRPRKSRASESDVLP
Procedure: Western blotting analyses using indicated specific antibodies were performed on M2 immunoprecipitates prepared from nuclear extracts of HEK293T cells transiently transfected with pMYs-3×FLAG-Setbp1-IRES-GFP and subsequently treated with different concentrations of Compound (1AA) and control DMSO for 12 hours.
Immunoprecipitation. HEK293T cells were transfected with the indicated expression constructs using LipoD293 (SignaGen Laboratories, Rockville, MD) and nuclear extracts were isolated 48 hours after transfection using the Nuclear Complex Co-IP kit (Active Motif, Carlsbad, CA). Nuclear lysates were incubated with either 4 μg of anti-Flag M2 (Sigma Aldrich, St. Louis, MO) or anti-XPO1 (NB100-79802, Novus Biological, Centennial, CO) for 4 hours at 4° C. Subsequently, Dynabeads protein A (Invitrogen, Carlsbad, CA) were added to the nuclear lysate/antibody mixture and incubated for an additional 2 hours at 4° C. Immunoprecipitated proteins were eluted and analyzed by Western blotting analysis. For immunoprecipitation experiments using in vitro transcribed and translated proteins, the corresponding cDNAs were cloned into pCMV-TNT and the TnT T7 Coupled Wheat Germ Extract (Promega, Madison, WI) system was used according to the manufacturer's instructions.
Western Blotting Analysis. […]

[8] = test system: Setbp1(D/N)-induced leukemia; test: Mice transplanted with Setbp1(D/N)-induced AML, treatment with Compound (1AA); assay type: in vivo, mouse; conditions: 33 mg/kg, five intra-peritoneal injections from day 10 after transplantation, vs vehicle
Procedure: as §1

[9] = test system: Setbp1(D/N)-induced leukemia; test: Mice transplanted with Setbp1(D/N)-induced AML, treatment with KPT-330; assay type: in vivo, mouse
Procedure: Bone Marrow Transplantation and In Vivo Treatment with KPT-330. For generation of leukemic mice, 1×10^6 spleen cells from a primary recipient mouse with Setbp1(D/N)-induced leukemia were injected into the tail vein of each lethally irradiated (1100 rads from a ^137Cs source) B6-Ly5.2 female mouse along with 7.5×10^5 supporting bone marrow cells from un-irradiated B6-Ly5.2 mice. Starting from day 7 after transplantation, the recipient mice were treated with KPT-330 (20 mg/kg, dissolved in 2% DMSO/49% PEG300/ddH2O) or vehicle through oral gavage once every two days. KPT-330 was purchased from Selleck Chemicals.

## Cc1c2cc[n+](CCN3CCCCC3)cc2c(C)c2c1[nH]c1ccc(O)cc12.[Br-] [Compound (1AA)]
[1]
  colony formation: inhibits colony formation
[2]; 5 nM, 10 nM, and 100 nM
  colony formation: inhibits colony formation
[3]
  differentiation/cytotoxicity: induces differentiation/cytotoxicity
[4]
  differentiation/cytotoxicity: induces differentiation/cytotoxicity
[5]; 10 nM, 100 nM and 500 nM
  Setbp1 target transcription levels of Hoxa9, Hoxa10 and Myb: reduces Setbp1 target transcription levels
[6]; 10 nM, 100 nM and 500 nM
  Setbp1 (D/N) target transcription levels of Hoxa9, Hoxa10 and Myb: reduces Setbp1 (D/N) target transcription levels
[7]
  interaction between Setbp1(D/N) and XPO1: disrupts the interaction
[8]
  spleen size (spleen weights when moribund): reduced the spleen size
[8]; p=0.0034, Log-rank test
  survival of leukemic mice: significantly extended the survival

## Nc1ccc(Cn2ccc3c4c(N)nc(N)nc4ccc32)cc1 [Compound (2AA)]
[1]
  colony formation: inhibits colony formation
[2]; 10 nM, 50 nM, 100 nM, 300 nM and 500 nM
  colony formation: inhibits colony formation
[3]
  differentiation/cytotoxicity: induces differentiation/cytotoxicity
[4]
  differentiation/cytotoxicity: induces differentiation/cytotoxicity
[5]; 50 nM, 100 nM and 300 nM
  Setbp1 target transcription levels of Hoxa9, Hoxa10 and Myb: reduces Setbp1 target transcription levels
[6]; 50 nM, 100 nM and 300 nM
  Setbp1 (D/N) target transcription levels of Hoxa9, Hoxa10 and Myb: reduces Setbp1 (D/N) target transcription levels

## COc1cc(-c2ncn(/C=C\C(=O)OC(C)C)n2)cc(C(F)(F)F)c1 [KPT-185, reference compound]
[1]; Setbp1-immortalized myeloid progenitors, indicated concentrations, vs DMSO
  relative colony-forming potential: significantly reduces colony-forming potential
[2]; Setbp1(D/N)-immortalized myeloid progenitors, indicated concentrations, vs DMSO
  relative colony-forming potential: significantly reduces colony-forming potential
[3]; 48 hours after treatment, vs DMSO
  apoptosis (Annexin V staining): induces apoptosis
[3]; 72 hours after treatment
  differentiation: number of mature neutrophils (cytospin): significantly increase
[4]; Setbp1(D/N)-immortalized cells, 48 hours after treatment, vs DMSO
  apoptosis (Annexin V staining): induces apoptosis
[4]; Setbp1(D/N)-immortalized cells, 72 hours after treatment
  differentiation (cytospin): induces apoptosis and differentiation
[5]; 300 nM, 2.5 hours after treatment, vs DMSO
  Hoxa9/Hoxa10/Myb mRNA levels: significantly down-regulated
[6]; Setbp1(D/N)-immortalized cells, 300 nM, 2.5 hours after treatment, vs DMSO
  Hoxa9/Hoxa10/Myb mRNA levels: significantly down-regulated

## O=C(/C=C\n1cnc(-c2cc(C(F)(F)F)cc(C(F)(F)F)c2)n1)NNc1cnccn1 [KPT-330]
[9]; 20 mg/kg oral gavage every 2 days from day 7, vehicle mice moribund in 17 days
  extension of survival time: ≤ 50%
[9]; 20 mg/kg oral gavage every 2 days from day 7 after transplantation, vs vehicle, p=0.012, Log-rank test
  survival of transplanted mice: prolonged the survival
